Measurements reported in patent publication US20150057375A1, “USE OF IMPROVED N-ALKYL PYRROLIDONE SOLVENT” (TAMINCO, priority 2012, published 2015).
Entries after “also recorded” stand apart in the source; their conditions may differ.

Columns and labels:
[1] = test system: female Han Wistar rat (embryo and foetus); experiment: Screening study of effects on development of the embryo and foetus after gavage of pregnant rats (similar to OECD 422); type: in vivo; conditions: for Bone and cartilage abnormalities and variations / ossification and supernumerary ribs; test item-related effects in the foetuses / Weights of the foetuses: 100 mg/kg body weight/day to dams
Method: The purpose of this study was to detect effects of 4 test items or compounds on the development of the embryo and foetus consequent to exposure of the female Han Wistar rat to the test items from day 6 post coitum (implantation) to day 20 post coitum (the day prior to Caesarean section). Particular attention was given to the foetal skeleton. Each group received one test compound, at a dose level of 100 or 500 mg/kg/day. The results were compared to a negative control group, which were administered distilled water (Aqua dest.).
Each group consisted of 5 mated females, treated by gavage, once daily as follows:
A standard dose volume of […] body weight with a daily adjustment to the actual body weight was used.
The foetuses were removed from the uterus, sexed, weighed individually, examined for gross external abnormalities, sacrificed by a subcutaneous injection of sodium pentobarbital, eviscerated and with the exception of over the paws, the skin was removed and discarded. Carcasses were processed through solutions of ethanol, glacial acetic acid with Alcian blue (for cartilage staining), potassium hydroxide with Alizarin red S (for clearing and staining ossified bone) and aqueous glycerine for preservation and storage. The skeletons were examined and all abnormal findings and variations were recorded.

[2] = EU classification / screening test; cited from earlier work
rat = conditions: in vivo; cited from earlier work
[3] = 100 mg/kg body weight/day, gavage
[4] = 500 mg/kg body weight/day to dams
[5] = 500 mg/kg body weight/day, gavage
[6] = 500 mg/kg body weight/day, gavage once daily, day 6-20 post coitum, 5 mated females per group

Row | SMILES | Weights of the foetuses [1] | Weights of the foetuses (male and female) [1, 4] | Maternal food consumption at start of treatment, days 6-9 p.c. [1, 5] | Bedding in the mouth (females/dams affected) [1, 6] | Bone and cartilage abnormalities and variations / ossification and supernumerary ribs; test item-related effects in the foetuses [1] | Maternal mean body weight, body weight gain and corrected body weight gain [1, 3] | Maternal mean food consumption vs control group [1, 3] | Reprotoxicity [2] | Incidence of zygomatic arch fusion in the skull of foetuses [1, 4] | Maternal absolute body weight [1, 5] | Maternal body weight gain [1, 5] | Maternal corrected body weight gain [1, 5] | other results
1 | CN1CCCC1=O [NMP, N-methylpyrrolidone] |  |  |  |  |  |  |  | reprotoxic category 2 |  |  |  |  | Toxicity, LD50 oral rat (rat): 3914 mg/kg
2 | CC1CCC(=O)N1C (centres unmarked) [DMP, 1,5-dimethylpyrrolidone] |  |  |  |  |  |  |  | suspected as being reprotoxic |  |  |  |  | 
3 | CC(C)N1CCCC1=O [N-isopropylpyrrolidone] |  | statistically significantly reduced | decreased slightly | 4 |  |  |  |  | slightly increased | did not have a clear effect | statistically significantly reduced | reduced but not statistically significantly | Incidence of cervical ribs in foetuses [1, 4]: clearly increased incidence; Incompletely ossified cranial structures in foetuses [1, 4]: slightly increased; Number of foetuses per dam [1, 4]: decreased; Post-implantation loss and embryonic resorptions [1, 4]: increased; Maternal mean food consumption after days 6-9 p.c. / overall vs control group [1, 5]: recovered thereafter

The next lines start with results.

Row | Weights of the foetuses [1] | Weights of the foetuses (male and female) [1, 4] | Maternal food consumption at start of treatment, days 6-9 p.c. [1, 5] | Bedding in the mouth (females/dams affected) [1, 6] | SMILES | Bone and cartilage abnormalities and variations / ossification and supernumerary ribs; test item-related effects in the foetuses [1] | Maternal mean body weight, body weight gain and corrected body weight gain [1, 3] | Maternal mean food consumption vs control group [1, 3] | Reprotoxicity [2] | Incidence of zygomatic arch fusion in the skull of foetuses [1, 4] | Maternal absolute body weight [1, 5] | Maternal body weight gain [1, 5] | Maternal corrected body weight gain [1, 5] | other results
4 | not affected |  |  |  | CCCCN1CCCC1=O [N-n-butylpyrrolidone] | no test item-related findings; also recorded: No test item-related effects | No effects | No effects; also recorded: not considered to have been affected |  |  |  |  |  | Bedding in the mouth (females affected) ([1]; 100 mg/kg body weight/day, gavage once daily, day 6-20 post coitum, 5 mated females per group): one female
5 |  | statistically significantly reduced | statistically significantly reduced | all females | CCCN1CCCC1=O [N-n-propylpyrrolidone] |  |  |  |  | increased incidence | at no time statistically significantly reduced | statistically significantly reduced | reduced without statistical significance | Incidence of non-ossified cervical vertebral bodies and supernumerary ribs in foetuses [1, 4]: slightly increased incidence; Mean food consumption compared to the control group ([1]; 500 mg/kg body weight/day, treatment period days 6-21 p.c.): −9.1%; Maternal corrected body weight gain ([1]; 500 mg/kg body weight/day, control group 11.1%): 7.6%; Maternal body weight gain over the treatment period ([1]; 500 mg/kg body weight/day, control group 49%): 36%
6 | not affected |  |  |  | CC(C)CN1CCCC1=O [N-isobutylpyrrolidone] | no test item-related findings; also recorded: No test item-related effects | no effects; also recorded: not affected | no effects |  |  |  |  |  | 
